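Values below derive from 48-hour exposures of cells grown in 96-well plates, with endpoints linearly interpolated between the two concentrations bracketing the appropriate inhibition level. Abbreviation: GI50, concentration required for 50% inhibition of growth. TGI is the concentration that stops growth completely.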
Tests used:
Assay in all cases: inhibition of tumour cell growth, NCI panel, 48 h
[1] = test system: BT-549 breast
[2] = test system: SNB-78 CNS
[3] = test system: KM20L2 colon
[4] = test system: MDA-MB-231 breast
[5] = test system: T-47D breast
[6] = test system: NCI-H23 lung
[7] = test system: M19-MEL melanoma
[8] = test system: DMS 114 small cell lung
[9] = test system: XF 498 CNS
[10] = test system: DLD-1 colon
[11] = test system: SK-MEL-28 melanoma
[12] = test system: MDA-MB-435
[13] = test system: A498 renal

| Structure (SMILES) | GI50 [1] [µM] | TGI [1] [µM] | TGI [2] [µM] | TGI [3] [µM] | TGI [4] [µM] | GI50 [5] [µM] | TGI [5] [µM] | GI50 [6] [µM] | TGI [6] [µM] | TGI [7] [µM] | TGI [8] [µM] | TGI [9] [µM] | TGI [10] [µM] | GI50 [11] [µM] | TGI [11] [µM] | TGI [12] [µM] | TGI [13] [µM] |
| --- | --- | --- | --- | --- | --- | --- | --- | --- | --- | --- | --- | --- | --- | --- | --- | --- | --- |
| CC1=NN(C(=O)c2ccccc2O)C(=O)/C1=C/c1ccc([N+](=O)[O-])cc1 | 0.127 | > 100 | > 100 | > 100 | > 100 | 0.222 | > 100 | 0.654 | 4.77 | > 100 | 7.81 | > 100 | > 100 | 4.7 | > 100 | > 100 |  |
| CCOc1ccc2nc(NC(=O)C(=O)C(C(=O)c3ccccc3-c3ccccc3)C3OC(=O)c4ccccc43)sc2c1 (stereo not given) |  | 81.7 | > 100 | 54.6 | 70.8 |  | 60.7 |  | 47.4 | 44.2 | 35 | 49.1 | > 100 |  | 54.2 | 65.1 | 48.1 |
| COc1cc2c(cc1O)C=NCC2 |  |  | > 100 | > 100 |  |  |  |  | > 100 | > 100 | > 100 | > 100 | > 100 |  | > 100 |  | > 100 |
| CCCCCCCCCCCOC(=S)NC(C)C |  |  | 78.5 | 30.2 |  |  |  |  | 38.1 | 58.6 | 36.1 | 30.9 | 49 |  | 56.6 |  | 39 |
| COc1ccc(/C=C2\CN(C)Cc3c2nc(N)nc3-c2ccc(OC)cc2)cc1 |  |  | > 100 | > 100 |  |  |  |  | > 100 | > 100 | > 100 | > 100 | > 100 |  | > 100 |  | > 100 |
| COc1ccc(/C(=N/NC(N)=O)C2(O)C(=O)Nc3ccc([N+](=O)[O-])cc32)cc1 (stereo not given) |  |  | 34.7 | 51.5 |  |  |  |  | 31.6 | 45.6 | 47.8 | 30.1 | 57 |  | 36.9 |  | 87.5 |
| N#C/C(=C\c1ccccc1O)C(N)=O |  |  | > 100 | > 100 |  |  |  |  | > 100 | > 100 | > 100 | > 100 | > 100 |  | > 100 |  | > 100 |
| CCOc1ccccc1NC(=O)CCC(=O)OC |  |  | > 100 | > 100 |  |  |  |  | > 100 | > 100 | > 100 | > 100 | > 100 |  | > 100 |  | > 100 |
| CC1=CC2CC(C)=C(CC[C@]3(C)CC[C@H]([C@@H](C)C(=O)O)OO3)C(C)(C)C2CC1 (stereo not given in full) |  |  | 4.09 | 2.63 |  |  |  |  | 2.35 | 3.05 | 0.973 | 0.768 | 0.426 |  | 3.1 |  | 3.14 |
| C[N+]1(C)CCCC1C(=O)[O-] (stereo not given) |  |  | > 100 | > 100 |  |  |  |  | > 100 | > 100 | > 100 | > 100 | > 100 |  | > 100 |  | > 100 |
| S=c1sc2c(Cl)ncnc2n1-c1ccccc1 |  |  | 33.4 | 34.2 |  |  |  |  | 31.7 | 13.1 | 28.1 | 28.7 | 24.2 |  | 23.6 |  | 30.9 |
